According to patent US10888500B2, “Particle size stabilization process” (INKE, S.A., priority 2016, dated 2021):

Experiments:
[1] = between pH 1 and 14; cited from earlier work
[2] = for D50 determined by LDS after curing / D90 determined by LDS after curing: after curing at 130° C., storage at 25° C. for (at least) 1 month
Experimental: Laser Diffraction Spectrometry (LDS) was used to determine the Particle Size Distribution (PSD) and the determination of the presence of aggregates.
Particle Size Distribution ([…]).
The particle size distribution of sample was measured by using a Helos particle size analyser using a R1 lense with an Aspiros feeder using a dispersing dry process on 50 mg of glycopyrronium salt product.
(§1) Determination of Presence of Aggregates (MALVERN).
The presence of aggregates in a sample was determined by using a Malvern Mastersizer 2000 instrument. For example: 100 mg of glycopyrronium salt were mixed with 5 ml of a previously prepared saturated solution of glycopyrronium salt in n-heptane containing 0.2 wt. % of Span-20. Ultrasonic treatment of the samples was performed for 2 minutes.

[3] = Determination of presence of aggregates / agglomerated material (Malvern); type: physicochemical; settings: after the curing step
Text: as §1

[4] = Amorphous content by Dynamic Vapor Sorption Analysis (DVS), water uptake method; type: physicochemical; settings: after the curing step
Experimental: Dynamic Vapor Sorption Analysis (DVS):
The experiments were performed in a Mettler Toledo TGA/DSC 1 LF instrument equipped with a LF SDTA FRS2 sensor and coupled with a Modular Humidity Generator MHG 32. The samples were weighted into 150 μL platinum crucibles. Data collection and evaluation was done with STARe software. A water uptake method was used to determine the amorphous content. In this method, the relative mass difference at a specific relative humidity (20%) prior to and post humidity-induced crystallization was compared. Assuming no solvate or hydrate formation, the difference in uptake between partially amorphous and recrystallized material is directly proportional to the initial amount of amorphous material in the sample. A purely amorphous sample (reference sample) was used as amorphous standard. The water uptake of a sample is proportional to the amount of amorphous content present in the sample.

[5] = after curing at 70° C., vacuum, 6 hours, FIG. 1: after storage at 25° C. for 1 month

| Compound | ionization [1] | D50 determined by LDS after curing [2] [μm] | D90 determined by LDS after curing [2] [μm] | agglomerated material observed [3] | amorphous content as determined by DVS (in words) [4] | D50 after the curing step (agglomerated material, FIG. 1) [2, 5] [μm] | D90 after the curing step (agglomerated material, FIG. 1) [2, 5] [μm] | amorphous content as determined by DVS [4] [wt. %] |
| --- | --- | --- | --- | --- | --- | --- | --- | --- |
| C[N+]1(C)CC[C@@H](OC(=O)[C@@](O)(c2ccccc2)C2CCCC2)C1 (racemic) [Glycopyrronium bromide, (3RS)-3-[(2SR)-(2-cyclopentyl-2-hydroxy-2-phenylacetyl)oxy]-1,1-dimethylpyrrolidinium bromide] | completely ionized | – | – | – | – | – | – | – |
| glycopyrronium bromide [Example 3] | – | 1.46 | 3.36 | no agglomerated material was observed | No amorphous content was detected | – | – | – |
| glycopyrronium bromide [Example 1, reference compound] | – | – | – | significant amount of agglomerated material | – | 60.27 | 888.59 | 1.8 |
| glycopyrronium bromide [Example 5] | – | 1.43 | 3.28 | no agglomerated material was observed | No amorphous content was detected | – | – | – |
| glycopyrronium bromide [Example 4] | – | 1.45 | 3.26 | no agglomerated material was observed | No amorphous content was detected | – | – | – |
| glycopyrronium bromide [Example 2] | – | 1.45 | 3.39 | no agglomerated material was observed | No amorphous content was detected | – | – | – |
| glycopyrronium bromide [Example 6] | – | 1.48 | 3.11 | no agglomerated material was observed | No amorphous content was detected | – | – | – |
